Read-outs that look alike come from different tables or passages of the source. Where a SMILES comes first, the peptide text is derived from it. Bridges are numbered along the chain shown (N, C = ends). [ ]: non-standard residue; d: D form. The star is where a group is joined. X1 = CC[C@H](C)CCCCC(=O)*; Dab = NCC[C@H](N)C(=O)O
Columns and labels:
Acinetobacter baumannii = conditions: animal thigh and lung infection models; cited from earlier work
Klebsiella pneumoniae = conditions: in vitro experiments, typical plasma maximum concentrations; cited from earlier work
[1] = cited from earlier work
Procedure: However, the ELF exposure was similar, despite the higher dose, probably due to a higher clearance from the lung compartment in our study, as evidenced by the ... || Contrarily, our results were only marginally compatible with the results of Boisson et al. and Gkoufa et al.. In the former study, the range of colistin concentration in the ELF following a 2 mIU inhalation spanned from 9.53 to 1137 mg/L [14], while it was between 0.8 mg/L and 57.9 mg/L in the present study. In the latter study, the exact values were not reported, however in the figured data it was shown that after an inhalation of 3 to 5 mIU of CMS, formed colistin concentrations were in the range of 10^2 to 10^3 mg/L [16]. Again, it is not known whether these differences we ...

[2] = Colistin pharmacokinetics in plasma after nebulized CMS in ventilated VARI patients; format: in vivo, human; conditions: for Volume of distribution/ fraction of dose absorbed / Clearance/fraction of dose absorbed / Cmax / AUC0–8 h: NCA; for Volume of distribution/ fraction of dose absorbed: dose/(λ × AUCinf); for Volume of distribution/ fraction of dose absorbed / Clearance/fraction of dose absorbed / Cmax / Cmin / AUC0–8 h / level at 0.5 h / level at 1 h / level at 2 h / level at 4 h / level at 6 h / level at 8 h / Tmax: median (IQR); for Clearance/fraction of dose absorbed: dose/AUCinf; for AUC0–8 h: no systemic CMS, HPLC-fluorescence; for level at 0.5 h / level at 1 h / level at 2 h / level at 4 h / level at 6 h / level at 8 h / Tmax: 2 mIU; for level at 0.5 h: 0.5 h post-nebulization; for level at 0.5 h / level at 1 h / level at 2 h / level at 4 h / level at 6 h / level at 8 h: read-out: Ccolistin, plasma; for level at 1 h: 1 h post-nebulization; for level at 2 h: 2 h post-nebulization; for level at 4 h: 4 h post-nebulization; for level at 6 h: 6 h post-nebulization; for level at 8 h: 8 h post-nebulization
Description: The study population consisted of 24 critically ill adult patients, admitted to the intensive care unit of the First Department of Pulmonology of the National and Kapodistrian University of Athens between June 2014 and November 2017. All patients were intubated and mechanically ventilated, and received inhaled CMS as part of their treatment for VAP or VAT caused by Gram-negative pathogens. Subjects were studied around the first dose of nebulized treatment, which always preceded intravenous treatment, to avoid confounding by colistin (or CMS) reaching the ELF via the systemic circulation. We excluded patients that received a dose different to the institution’s standard of 2 million international units (mIU) (~160 mg) of CMS and patients who were planned to receive intravenous colistin within 8 h of nebulization initiation.
A dose of 2 mIU of CMS (Colistin®, Norma Hellas, Athens, Greece), corresponding to approximately 160 mg CMS or 68 mg colistin-base activity, was nebulized over a 10–30 min period via either VMN (Aeroneb Solo with Aeroneb Pro controller, Aerogen, Galway, Ireland) or generic JN. This was not a randomized trial, and the nebulizer selection was exclusively a matter of availability of VMN consumables in the ICU at the time. The intended dose was dissolved in 4 mL of normal saline 0.9%. The nebulizer was placed at the inspiratory limb of the ventilator circuit, at 15 cm from the Y-piece, and the heat and moisture exchanger was removed. During nebulization, the patients were sedated and ventilated using assist volume controlled mode, with tidal volume set at 8 mL/kg of ideal body weight, a constant squared-wave inspiratory flow, a positive end expiratory pressure (PEEP) of less than or equal to 10 cm H2O, an inspiratory to expiratory time ratio equal to 1, an inspiratory pause of 10%, and a respiratory rate set at 15/min [31].
[…] The specimens were immediately centrifuged (3500× g for 10 min) in a frigid centrifuge (at 4 °C) and supernatants were collected in Eppendorfs and were frozen at −80 °C until analysis.
Colistin concentrations in plasma (Ccolistin,plasma) and epithelial lining fluid (Ccolistin,ELF) were measured through high performance liquid chromatography (HPLC)-fluorescence analysis.
The samples were rapidly centrifuged, and plasma and BAL supernatant were separated and kept frozen (−80 °C) before analysis, as previously described. An HPLC-RF assay was used for colistin concentration measurements in plasma and BAL fluid samples, based on the method of Li et al., as modified by Markou et al. and Ratjen et al.. Briefly, netilmicin was used as the internal standard and the method consisted of a protein precipitation step with trifluoracetic acid (TFA), followed by colistin derivatization with 9-fluorenylmethyl chloroformate on a solid phase extraction C18 cartridge. The eluted fluid was dried under vacuum and the solid residue was reconstituted in mobile phase for subsequent reversed-phase HPLC with fluorescence detection (excitation: 260 nm; emission: 316 nm). The analytical column was a Phenomenex Luna C18, 3 μm, 50 mm × 3 mm with 100 Å particle size, while the mobile phase consisted of ACN/THF/H2O (80/7.7/12.3%) with a flow rate of 0.5 mL/min. The injection volume was 20 μL. The method was linear at a concentration range of 0.10–4.8 mg/L (R^2 = 0.999). The limit of detection (LOD) and lower limit of quantification (LLOQ) were 0.01 and 0.04 mg/L, respectively, while the intra- and inter-assay variabilities were less than 16%. Representative chromatograms and calibration curves in plasma and BAL are given in the Supplementary Material (Figures S1 and S2).
PK analysis was performed on measured serum and ELF concentrations using the Phoenix® version 8.3 PK/PD software package (Certara, Princeton, NJ, USA). […]

[3] = human, inhaled or intranasal, JN, n = 6, 2 mIU CMS inhaled
[4] = human, inhaled or intranasal, VMN, n = 18, 2 mIU CMS inhaled

In the case of CC[C@H](C)CCCCC(=O)N[C@@H](CCN)C(=O)N[C@H](C(=O)N[C@@H](CCN)C(=O)N[C@H]1CCNC(=O)[C@H]([C@@H](C)O)NC(=O)[C@H](CCN)NC(=O)[C@H](CCN)NC(=O)[C@H](CC(C)C)NC(=O)[C@@H](CC(C)C)NC(=O)[C@H](CCN)NC1=O)[C@@H](C)O [colistin] (X1-[Dab]T[Dab][Dab][Dab][dL]L[Dab][Dab]T; lactam 4-C), the “fAUC/MIC predicting 1-log killing” value (Acinetobacter baumannii) is listed as 7–42, the “fAUC/MIC linked to 2-log killing” value (Klebsiella pneumoniae) is listed as 25 and the “median plasma Cmax” value ([1]; 1 mIU of CMS via VMN, ref 13 (Athanassa et al.)) is listed as 1600 ng/mL. The plasma concentrations ([1]; after inhaled CMS, generally) was “below 1 mg/L”, the “Ccolistin over 2 mg/L, frequency of patients” value (“Ccolistin over 2 mg/L” below) ([2]; 30 min, JN, n = 6, 2 mIU CMS inhaled) was 0% and the “Ccolistin over 2 mg/L” value ([2]; 30 min, VMN, n = 18, 2 mIU CMS inhaled) was 0%. The “Ccolistin over 2 mg/L” value ([2]; 60 min, JN, n = 6, 2 mIU CMS inhaled) was 16.7%, the “Ccolistin over 2 mg/L” value ([2]; 60 min, VMN, n = 18, 2 mIU CMS inhaled) was 61.1% and the “Ccolistin over 2 mg/L” value ([2]; 120 min, JN, n = 6, 2 mIU CMS inhaled) was 16.7%. For the same molecule, the “Ccolistin over 2 mg/L” value ([2]; 120 min, VMN, n = 18, 2 mIU CMS inhaled) was 22.2%, the “Ccolistin over 2 mg/L” value ([2]; 240 min, JN, n = 6, 2 mIU CMS inhaled) was 16.7% and the “Ccolistin over 2 mg/L” value ([2]; 240 min, VMN, n = 18, 2 mIU CMS inhaled) was 5.6%. For the same molecule, the “Ccolistin over 2 mg/L” value ([2]; 360 min, JN, n = 6, 2 mIU CMS inhaled) was 0%, the “Ccolistin over 2 mg/L” value ([2]; 360 min, VMN, n = 18, 2 mIU CMS inhaled) was 0% and the “Ccolistin over 2 mg/L” value ([2]; 480 min, JN, n = 6, 2 mIU CMS inhaled) was 0%. The “Ccolistin over 2 mg/L” value ([2]; 480 min, VMN, n = 18, 2 mIU CMS inhaled) was 0%, the “Volume of distribution/ fraction of dose absorbed” value ([2]; JN, n = 6, 2 mIU CMS inhaled) was 129.8 (95.6–151.9) L and the “Clearance/fraction of dose absorbed” value ([2]; JN, n = 6, 2 mIU CMS inhaled) was 37.6 (23.2–39.9) L/h. The Cmax ([2]; JN, n = 6, 2 mIU CMS inhaled) was 0.3 (0.3–1.6) mg/L, the “AUC0–24” value ([2]; JN, n = 6, 2 mIU CMS inhaled, calculated as AUCinf × 3, median (IQR)) was 4.0 (3.8–19.3) mg/L∙h and the Cmin ([2]; JN, n = 6, 2 mIU CMS inhaled) was 0.1 (0.1–0.2) mg/L. For the same molecule, the “AUC0–8 h” value ([2]; JN, n = 6, 2 mIU CMS inhaled) was 1.3 (1.3–6.4) mg/L∙h, the “Mean T1/2 (SD)” value ([2]; JN, n = 6, 2 mIU CMS inhaled, t1/2 = 0.693/λ, mean (SD), SD) was 2.4 (0.5) h and the “Volume of distribution/ fraction of dose absorbed” value ([2]; VMN, n = 18, 2 mIU CMS inhaled) was 22.8 (16.8–33.0) L. The “Clearance/fraction of dose absorbed” value ([2]; VMN, n = 18, 2 mIU CMS inhaled) was 7.3 (6.0–9.1) L/h, the Cmax ([2]; VMN, n = 18, 2 mIU CMS inhaled) was 2.6 (2.0–3.5) mg/L and the Cmin ([2]; VMN, n = 18, 2 mIU CMS inhaled) was 0.2 (0.1–0.3) mg/L. The “AUC0–8 h” value ([2]; VMN, n = 18, 2 mIU CMS inhaled) was 7.5 (5.5–8.8) mg/L∙h, the level at 0.5 h [2, 3] was 100 ng/mL and the level at 0.5 h [2, 4] was 600 ng/mL. The level at 1 h [2, 3] was 100 ng/mL, the level at 1 h [2, 4] was 2300 ng/mL and the level at 2 h [2, 3] was 300 ng/mL. For the same molecule, the level at 2 h [2, 4] was 1700 ng/mL, the level at 4 h [2, 3] was 200 ng/mL and the level at 4 h [2, 4] was 800 ng/mL. It also gave a level at 6 h [2, 3] of 100 ng/mL, a level at 6 h [2, 4] of 400 ng/mL and a level at 8 h [2, 3] of 100 ng/mL. The level at 8 h [2, 4] was 200 ng/mL, the Tmax [2, 3] was 2.2 h and the Tmax [2, 4] was 1.5 h. For the same molecule, the half-life ([2]; human, inhaled or intranasal, VMN, n = 18, 2 mIU CMS inhaled, t1/2 = 0.693/λ, mean (SD), SD) was 2.4 h.

— publication PMC9686516, “Pharmacokinetic Characteristics of Nebulized Colistimethate Sodium Using Two Different Types of Nebulizers in Critically Ill Patients with Ventilator-Associated Respiratory Infections” (Antibiotics, 2022)
